Legend:
Bioavailability = conditions: in vivo; read-out: bioavailability (F)
[1] = tested on: mouse model of fibromyalgia (chronic widespread pain induced by intermittent cold stress); assay: Intermittent cold stress (ICS) mouse model of fibromyalgia; mechanical hyperalgesia, hindpaw withdrawal to 0.2-mN von Frey filament; type: in vivo, mice (female C57BL/6JNarl); conditions: for tolerance / therapeutic effect on repeated treatment: 1 mg/kg p.o. once a day for 4 days from day 5 after ICS
Protocol: Female C57BL/6JNarl mice aged 8-12 weeks were purchased from the National Laboratory Animal Center (Taipei, Taiwan). The fibromyalgia model was developed by Ueda's group, in which mice were treated with intermittent cold stress for 2 days (Nishiyori, M.; Ueda, H. Prolonged gabapentin analgesia in an experimental mouse model of fibromyalgia. Mol. Pain 2008, 4, 52). Mice treated with intermittent cold stress developed long-lasting (>2 weeks) mechanical and thermal hyperalgesia. Analgesic effects of compound I-a1 (JMF3737) via i.p. (in 0.5% HPβCD) or p.o. (in 1% HPβCD) routes and compound I-d1 (JMF4413) via i.p. (in 0.5% HPβCD) were tested in these mice 5 days after intermittent cold stress. Mechanical hyperalgesia was assayed by testing the withdrawal response of mouse hindpaws to 0.2-mN von Frey filament stimulation.

Solubility = type: physicochemical
[2] = Tolerated dose / safety range in the ICS mouse model; type: in vivo
Protocol: Female C57BL/6JNarl mice aged 8-12 weeks were purchased from the National Laboratory Animal Center (Taipei, Taiwan). […] Mechanical hyperalgesia was assayed by testing the withdrawal response of mouse hindpaws to 0.2-mN von Frey filament stimulation.

[3] = molecular target: T1, NK1R receptor in muscle nociceptors (Mus musculus, UniProt P30548); assay: Whole-cell patch clamp recording on muscle nociceptors (outward current); type: cell-based
T1 construct: whole-cell patch clamp recording on muscle nociceptors; endogenous in cells; host or cells: muscle nociceptors (primary sensory neurons; preparation not described)
T1 sequence (P30548 whole entry): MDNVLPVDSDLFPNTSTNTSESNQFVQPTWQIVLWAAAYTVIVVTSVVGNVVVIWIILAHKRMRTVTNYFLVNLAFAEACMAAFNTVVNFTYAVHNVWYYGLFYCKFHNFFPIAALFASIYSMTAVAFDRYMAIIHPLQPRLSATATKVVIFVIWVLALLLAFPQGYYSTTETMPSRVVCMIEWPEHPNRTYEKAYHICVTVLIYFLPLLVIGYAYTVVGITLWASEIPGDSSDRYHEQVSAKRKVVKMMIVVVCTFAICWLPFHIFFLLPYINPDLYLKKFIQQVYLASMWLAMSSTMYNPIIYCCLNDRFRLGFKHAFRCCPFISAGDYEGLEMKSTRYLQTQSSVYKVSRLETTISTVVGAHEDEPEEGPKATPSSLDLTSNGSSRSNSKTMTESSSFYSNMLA
From the text: The JMF3737-induced outward current (IJMF3737) can cause nociceptor hyperpolarization and thus counteract the acid-induced depolarization in muscle nociceptors and thus inhibit pain associated with tissue acidosis.

[4] = p.o. (oral gavage), ICS mouse model

## OC[C@H]1O[C@@H](n2cnc3c(NCc4ccc(O)cc4)ncnc32)[C@H](O)[C@@H]1O [T1-11, N^6-(4-hydroxybenzyl)adenosine, reference compound]
Bioavailability
  bioavailability: ~5%
[1]; ICS mouse model
  analgesic effect (in words): excellent analgesic effect
[1]; i.p., ICS mouse model
  dose-dependent analgesic effect, effective dose starting from: 0.03 mg/kg
[1]; [4]
  dose-dependent analgesic effect, effective dose starting from: 8 mg/kg
Solubility
  solubility in dimethylsulfoxide (DMSO): good solubility

## CCCCNC(=O)OC[C@H]1O[C@@H](n2cnc3c(NCc4ccc(O)cc4)ncnc32)C(O)C1O (stereo partly drawn) [Compound 8, 5′-O-(n-Butylaminocarbonyl)-N^6-(4-hydroxybenzyl)adenosine]
other
  melting point: 187.4 to 189 °C

## O=C(O)CNC(=O)NC[C@H]1O[C@@H](n2cnc3c(NCc4ccc(O)cc4)ncnc32)C(O)C1O (stereo partly drawn) [I-d1, 5′-Deoxy-5′-(glycine-N-amido)-N^6-(4-hydroxybenzyl)adenosine]
[2]; i.p.
  dose without causing appreciable detrimental effect: 64 mg/kg
[1]; 64 mg/kg via i.p. route, n=2
  analgesic effect (in words): good analgesic effect
[1]; ICS mouse model
  analgesic effect (in words): excellent analgesic effect

## O=C(O)CNC(=O)OC[C@H]1O[C@@H](n2cnc3c(NCc4ccc(O)cc4)ncnc32)C(O)C1O (stereo partly drawn) [I-a1, 5′-O-(Glycine-N-carbonyl)-N^6-(4-hydroxybenzyl)adenosine]
[3]; JMF3737 10 μM with RP67580 10 μM, reversible inhibition
  induced outward current (IJMF3737) inhibited by NK1R antagonist: 15 pA
[3]; JMF3737 10 μM, muscle nociceptors
  induced outward current (IJMF3737): 40 pA
[2]; i.p. and p.o.
  dose without causing appreciable detrimental effect: at least 64 mg/kg
[1]; 1 mg/kg oral once a day for 4 days, since day 8, n=4
  pain sensitivity to von Frey filament stimulation after repeated treatment: decreased pain sensitivity
[1]; 1 mg/kg oral once a day, day 5 to day 8, n=4
  acute analgesic effect during repeated treatment: shows acute analgesic effect
[1]
  tolerance / therapeutic effect on repeated treatment: no tolerance but therapeutic effect
[1]; listed as JMF3737
  tolerance / therapeutic effect on repeated treatment: does not cause tolerance
[1]; 2 mg (4 μmol)/kg via oral route
  analgesic effect (in words): appreciable analgesic effect
[1]; ICS mouse model
  analgesic effect (in words): superior analgesic effect to that of T1-11
[1]; i.p., ICS mouse model
  dose-dependent analgesic effect, effective dose starting from: 1 mg/kg
[1]; [4]
  dose-dependent analgesic effect, effective dose starting from: 1 mg/kg
[1]; via oral route
  analgesic effect compared with T1-11: better analgesic effect over T1-11

— patent US11753432B2, “Compound with analgesic effect for use in prevention and treatment of pain” (Academia Sinica, priority 2017, dated 2023)
